In one assay the target is T1, c-KIT (Homo sapiens, UniProt P10721).
T1 construct: purchased Millipore 14-559K
Briefly: c-KIT recombinant enzyme kinase assay (AlphaScreen). Format: biochemical. The note with it: 100 ATP, 8 pt. In outline: (§1)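 Kinase activity of recombinant FLT3-ITD, FLT3-D835Y and c-KIT was followed via phosphotyrosine formation on a 30 nM biotin-peptide substrate, captured on streptavidin donor and anti-phosphotyrosine acceptor AlphaScreen beads. ATP was set at 10 μM for FLT3 and 100 μM for c-KIT.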
On the technique in general: Bead proximity is the source of the signal in Alpha formats.

The target of the next assay is T2, FLT3-ITD (Homo sapiens, UniProt P36888).
T2 sequence (P36888 1-993): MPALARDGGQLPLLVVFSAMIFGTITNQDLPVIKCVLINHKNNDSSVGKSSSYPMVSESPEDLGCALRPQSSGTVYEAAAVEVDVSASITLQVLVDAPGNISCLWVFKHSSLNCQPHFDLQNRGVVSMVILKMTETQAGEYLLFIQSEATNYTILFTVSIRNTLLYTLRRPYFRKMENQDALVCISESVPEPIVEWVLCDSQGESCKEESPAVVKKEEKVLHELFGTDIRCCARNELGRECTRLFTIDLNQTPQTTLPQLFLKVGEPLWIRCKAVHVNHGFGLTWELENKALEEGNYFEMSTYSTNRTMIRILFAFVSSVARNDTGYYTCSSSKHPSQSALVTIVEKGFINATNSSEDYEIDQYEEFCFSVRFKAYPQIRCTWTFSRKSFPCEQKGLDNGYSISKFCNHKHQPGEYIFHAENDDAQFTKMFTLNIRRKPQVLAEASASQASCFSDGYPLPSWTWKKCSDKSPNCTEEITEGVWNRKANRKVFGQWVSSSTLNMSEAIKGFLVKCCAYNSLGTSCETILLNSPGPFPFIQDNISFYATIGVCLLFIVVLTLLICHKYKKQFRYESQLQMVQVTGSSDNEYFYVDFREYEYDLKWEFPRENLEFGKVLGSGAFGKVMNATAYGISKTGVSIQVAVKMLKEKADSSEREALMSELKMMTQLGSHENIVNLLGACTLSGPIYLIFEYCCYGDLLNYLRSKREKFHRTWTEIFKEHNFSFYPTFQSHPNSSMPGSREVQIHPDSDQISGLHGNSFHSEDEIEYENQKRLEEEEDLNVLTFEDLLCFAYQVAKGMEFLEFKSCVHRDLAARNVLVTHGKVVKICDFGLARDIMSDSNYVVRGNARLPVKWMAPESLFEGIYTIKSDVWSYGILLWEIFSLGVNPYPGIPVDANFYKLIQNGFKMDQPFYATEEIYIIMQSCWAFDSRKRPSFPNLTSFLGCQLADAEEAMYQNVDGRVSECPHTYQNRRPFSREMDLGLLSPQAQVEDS
Briefly: FLT3-ITD recombinant enzyme kinase assay (AlphaScreen). In kind it is biochemical. The note with it: 8 pt; read-out: FLT3_ITD 8 pt: IC50. In outline:
as §1

SMILES strings stand for the structures.

T1 sequence (P10721 26-976): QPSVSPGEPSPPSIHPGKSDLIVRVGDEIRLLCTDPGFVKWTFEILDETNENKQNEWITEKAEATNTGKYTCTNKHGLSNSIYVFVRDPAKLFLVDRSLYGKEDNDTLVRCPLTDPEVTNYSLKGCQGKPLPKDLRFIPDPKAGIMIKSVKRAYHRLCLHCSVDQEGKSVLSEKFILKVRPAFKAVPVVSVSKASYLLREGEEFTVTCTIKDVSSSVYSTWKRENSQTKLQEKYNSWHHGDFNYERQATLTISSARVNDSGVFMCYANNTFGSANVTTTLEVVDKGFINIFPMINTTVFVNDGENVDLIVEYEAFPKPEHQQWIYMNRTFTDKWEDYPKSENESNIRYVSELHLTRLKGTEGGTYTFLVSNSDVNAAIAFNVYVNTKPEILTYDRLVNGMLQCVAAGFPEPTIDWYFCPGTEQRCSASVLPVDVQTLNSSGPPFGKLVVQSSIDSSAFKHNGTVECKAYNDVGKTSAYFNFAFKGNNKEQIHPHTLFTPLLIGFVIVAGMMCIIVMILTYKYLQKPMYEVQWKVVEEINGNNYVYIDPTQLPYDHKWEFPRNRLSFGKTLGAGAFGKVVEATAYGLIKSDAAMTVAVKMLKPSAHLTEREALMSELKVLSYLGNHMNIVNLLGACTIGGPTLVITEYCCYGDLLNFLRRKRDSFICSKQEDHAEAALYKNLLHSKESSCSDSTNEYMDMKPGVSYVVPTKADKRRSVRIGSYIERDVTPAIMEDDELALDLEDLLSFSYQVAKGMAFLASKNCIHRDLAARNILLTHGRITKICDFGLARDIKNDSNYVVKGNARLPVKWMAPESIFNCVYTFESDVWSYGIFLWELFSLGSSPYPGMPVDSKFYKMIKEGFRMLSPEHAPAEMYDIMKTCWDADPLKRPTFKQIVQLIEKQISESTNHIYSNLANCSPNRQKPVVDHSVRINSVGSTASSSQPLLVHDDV

As usually defined, the IC50 is the concentration needed to halve the response being measured. Turning to `O=C(Cc1ccc(-c2cnc3[nH]nc(C4CC4)c3c2)cc1F)Nc1cncc(C(F)(F)F)c1` [Compound P-0072, 2-[4-(3-cyclopropyl-1H-pyrazolo[3,4-b]pyridin-5-yl)-2-fluoro-phenyl]-N-[5-(trifluoromethyl)-3-pyridyl]acetamide], the IC50 at c-KIT and at FLT3-ITD was 0.0001 to 10 µM in each case.
Consider `O=C(Cc1ccc(-c2cnc3[nH]nc(C4CC4)c3c2)cc1)Nc1cncc(C(F)(F)F)c1` [Compound P-0073, 2-[4-(3-cyclopropyl-1H-pyrazolo[3,4-b]pyridin-5-yl)phenyl]-N-[5-(trifluoromethyl)-3-pyridyl]acetamide], for which the IC50 at c-KIT and at FLT3-ITD was 0.0001 to 10 µM throughout.
Consider `Cc1ncc(NC(=O)Cc2ccc(-c3cnc(Nc4cnn(C)c4C)nc3)cc2F)cc1C(F)(F)F` [Compound P-0076, 2-[4-[2-[(1,5-dimethylpyrazol-4-yl)amino]pyrimidin-5-yl]-2-fluoro-phenyl]-N-[6-methyl-5-(trifluoromethyl)-3-pyridyl]acetamide], for which the IC50 at c-KIT and on FLT3-ITD was 0.0001 to 10 µM each time.
As for `Cc1nn(C)cc1Nc1ncc(-c2ccc(CC(=O)Nc3cnc(C)c(C(F)(F)F)c3)c(F)c2)cn1` [Compound P-0077, 2-[4-[2-[(1,3-dimethylpyrazol-4-yl)amino]pyrimidin-5-yl]-2-fluoro-phenyl]-N-[6-methyl-5-(trifluoromethyl)-3-pyridyl]acetamide], the 50% inhibitory concentration (IC50) on c-KIT and at FLT3-ITD was 0.0001 to 10 µM in each case.
Consider `Cn1cnc(Nc2ncc(-c3cc(F)c(CC(=O)Nc4cncc(C(F)(F)F)c4)cc3F)cn2)c1` [Compound P-0078, 2-(2,5-difluoro-4-(2-((1-methyl-1H-imidazol-4-yl)amino)pyrimidin-5-yl)phenyl)-N-(5-(trifluoromethyl)pyridin-3-yl)acetamide], for which the IC50 on c-KIT and on FLT3-ITD was 0.0001 to 10 µM in each case.
Turning to `Cc1ncc(NC(=O)Cc2ccc(-c3cnc4[nH]cc(Cl)c4n3)cc2)cc1C(F)(F)F` [Compound P-0079, 2-(4-(7-chloro-5H-pyrrolo[2,3-b]pyrazin-2-yl)phenyl)-N-(6-methyl-5-(trifluoromethyl)pyridin-3-yl)acetamide], the IC50 on c-KIT and on FLT3-ITD was 0.0001 to 10 µM in each case.
For the compound `Cn1cc(Nc2ncc(-c3ccc(CC(=O)Nc4cncc(C5CC5)c4)c(F)c3)cn2)cn1` [Compound P-0081, N-(5-cyclopropyl-3-pyridyl)-2-[2-fluoro-4-[2-[(1-methylpyrazol-4-yl)amino]pyrimidin-5-yl]phenyl]acetamide], the IC50 on c-KIT and at FLT3-ITD was 0.0001 to 10 µM each time.
`Cn1cc(Nc2ncc(-c3ccc(CC(=O)Nc4cc(C(F)(F)F)ccn4)c(F)c3)cn2)cn1` [Compound P-0082, 2-[2-fluoro-4-[2-[(1-methylpyrazol-4-yl)amino]pyrimidin-5-yl]phenyl]-N-[4-(trifluoromethyl)-2-pyridyl]acetamide]: the IC50 on c-KIT and on FLT3-ITD was 0.0001 to 10 µM each time.
Consider `Cn1cc(Nc2ncc(-c3ccc(CC(=O)Nc4ccnc(C(F)(F)F)c4)c(F)c3)cn2)cn1` [Compound P-0083, 2-[2-fluoro-4-[2-[(1-methylpyrazol-4-yl)amino]pyrimidin-5-yl]phenyl]-N-[2-(trifluoromethyl)-4-pyridyl]acetamide], for which the IC50 on c-KIT and at FLT3-ITD was 0.0001 to 10 µM each time.
In the case of `Cn1cc(Nc2ncc(-c3ccc(CC(=O)Nc4cncc(C(F)(F)F)c4)c(F)c3)cn2)cn1` [Compound P-0084, 2-[2-fluoro-4-[2-[(1-methylpyrazol-4-yl)amino]pyrimidin-5-yl]phenyl]-N-[5-(trifluoromethyl)-3-pyridyl]acetamide], the IC50 on c-KIT and at FLT3-ITD was 0.0001 to 10 µM in each case.
Regarding `COc1cncc(NC(=O)Cc2ccc(-c3cnc(Nc4cnn(C)c4)nc3)cc2F)c1` [Compound P-0086, 2-[2-fluoro-4-[2-[(1-methylpyrazol-4-yl)amino]pyrimidin-5-yl]phenyl]-N-(5-methoxy-3-pyridyl)acetamide], the IC50 at c-KIT and at FLT3-ITD was 0.0001 to 10 µM in each case.
Regarding `Cn1cc(Nc2ncc(-c3ccc(CC(=O)NCc4ccc(C(F)(F)F)nc4)c(F)c3)cn2)cn1` [Compound P-0087, 2-[2-fluoro-4-[2-[(1-methylpyrazol-4-yl)amino]pyrimidin-5-yl]phenyl]-N-[[6-(trifluoromethyl)-3-pyridyl]methyl]acetamide], the IC50 at c-KIT and on FLT3-ITD was 0.0001 to 10 µM in each case.
Regarding `Cn1cc(Nc2ncc(-c3ccc(CC(=O)NCc4ccccn4)c(F)c3)cn2)cn1` [Compound P-0088, 2-[2-fluoro-4-[2-[(1-methylpyrazol-4-yl)amino]pyrimidin-5-yl]phenyl]-N-(2-pyridylmethyl)acetamide], the IC50 at c-KIT and on FLT3-ITD was 0.0001 to 10 µM throughout.
Consider `COc1ncc(NC(=O)Cc2ccc(-c3cnc(Nc4cnn(C)c4)nc3)cc2F)cc1C(F)(F)F` [Compound P-0089, 2-[2-fluoro-4-[2-[(1-methylpyrazol-4-yl)amino]pyrimidin-5-yl]phenyl]-N-[6-methoxy-5-(trifluoromethyl)-3-pyridyl]acetamide], for which the IC50 at c-KIT and at FLT3-ITD was 0.0001 to 10 µM in each case.
As for `Cn1cc(Nc2ncc(-c3ccc(CC(=O)Nc4cncc(C(C)(F)F)c4)c(F)c3)cn2)cn1` [Compound P-0090, N-[5-(1,1-difluoroethyl)-3-pyridyl]-2-[2-fluoro-4-[2-[(1-methylpyrazol-4-yl)amino]pyrimidin-5-yl]phenyl]acetamide], the 50% inhibitory concentration (IC50) on c-KIT and at FLT3-ITD was 0.0001 to 10 µM each time.
Turning to `Cn1cc(Nc2ncc(-c3ccc(CC(=O)NCc4ccc(C(F)(F)F)cn4)cc3)cn2)cn1` [Compound P-0162, 2-[4-[2-[(1-methylpyrazol-4-yl)amino]pyrimidin-5-yl]phenyl]-N-[[5-(trifluoromethyl)-2-pyridyl]methyl]acetamide], the IC50 on c-KIT and at FLT3-ITD was 0.0001 to 10 µM each time.
On to `Cn1cnc(Nc2ncc(-c3ccc(CC(=O)Nc4cc(C(C)(F)F)ccn4)cc3F)cn2)c1` [Compound P-0171, N-[4-(1,1-difluoroethyl)-2-pyridyl]-2-[3-fluoro-4-[2-[(1-methylimidazol-4-yl)amino]pyrimidin-5-yl]phenyl]acetamide], for which the IC50 at c-KIT and on FLT3-ITD was 0.0001 to 10 µM each time.
